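Step 1: Grow cells in 96-well plates. Step 2: Expose to compound for 48 hours at 5 concentrations. Step 3: Interpolate endpoints linearly; if unreached, use highest concentration. TGI: total growth inhibition.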
What was measured:
Test in all cases: growth of human tumour cells (NCI), 48 h
IGROV1 ovarian = test system: IGROV1 ovarian
NCI-H226 lung = test system: NCI-H226 lung
MDA-N = test system: MDA-N
BT-549 breast = test system: BT-549 breast
OVCAR-8 ovarian = test system: OVCAR-8 ovarian
SK-MEL-5 melanoma = test system: SK-MEL-5 melanoma
HCC-2998 colon = test system: HCC-2998 colon
ACHN renal = test system: ACHN renal
HT29 colon = test system: HT29 colon
A498 renal = test system: A498 renal
HOP-62 NSCLC = test system: HOP-62 NSCLC
M14 melanoma = test system: M14 melanoma
UACC-257 melanoma = test system: UACC-257 melanoma
MDA-MB-231 breast = test system: MDA-MB-231 breast
MOLT-4 leukemia = test system: MOLT-4 leukemia
A549 NSCLC = test system: A549 NSCLC
NCI-H522 lung = test system: NCI-H522 lung
HS 578T breast = test system: HS 578T breast
OVCAR-4 ovarian = test system: OVCAR-4 ovarian
PC-3 prostate = test system: PC-3 prostate
MDA-MB-435 = test system: MDA-MB-435
RPMI-8226 leukemia = test system: RPMI-8226 leukemia
OVCAR-3 ovarian = test system: OVCAR-3 ovarian
HCT-15 colon = test system: HCT-15 colon
UACC-62 melanoma = test system: UACC-62 melanoma
T-47D breast = test system: T-47D breast
HL-60(TB) leukemia = test system: HL-60(TB) leukemia
LOX IMVI melanoma = test system: LOX IMVI melanoma
SK-MEL-2 melanoma = test system: SK-MEL-2 melanoma
SK-OV-3 ovarian = test system: SK-OV-3 ovarian
K-562 leukemia = test system: K-562 leukemia
EKVX NSCLC = test system: EKVX NSCLC
COLO 205 colon = test system: COLO 205 colon
SF-295 CNS = test system: SF-295 CNS
CCRF-CEM leukemia = test system: CCRF-CEM leukemia
SN12C renal = test system: SN12C renal
UO-31 renal = test system: UO-31 renal
786-0 renal = test system: 786-0 renal
SF-268 CNS = test system: SF-268 CNS
SNB-75 CNS = test system: SNB-75 CNS
DU-145 prostate = test system: DU-145 prostate
NCI-H23 lung = test system: NCI-H23 lung
SK-MEL-28 melanoma = test system: SK-MEL-28 melanoma
OVCAR-5 ovarian = test system: OVCAR-5 ovarian
NCI/ADR-RES ovarian = test system: NCI/ADR-RES ovarian
TK-10 renal = test system: TK-10 renal
RXF 393 renal = test system: RXF 393 renal
KM12 colon = test system: KM12 colon
SW-620 colon = test system: SW-620 colon
MCF7 breast = test system: MCF7 breast
U251 CNS = test system: U251 CNS
HOP-92 NSCLC = test system: HOP-92 NSCLC
NCI-H460 lung = test system: NCI-H460 lung
CAKI-1 renal = test system: CAKI-1 renal
SF-539 CNS = test system: SF-539 CNS
MALME-3M melanoma = test system: MALME-3M melanoma
HCT-116 colon = test system: HCT-116 colon
SNB-19 CNS = test system: SNB-19 CNS

SMILES: COc1cc(C(c2c(O)c3ccccc3oc2=O)c2c(O)c3ccccc3oc2=O)ccc1O
- TGI (IGROV1 ovarian): 27.2 µM
- TGI (NCI-H226 lung): > 100 µM
- TGI (MDA-N): 44.8 µM
- TGI (BT-549 breast): 38.9 µM
- TGI (OVCAR-8 ovarian): > 100 µM
- TGI (SK-MEL-5 melanoma): 30.3 µM
- TGI (HCC-2998 colon): 33.9 µM
- TGI (ACHN renal): 40.2 µM
- TGI (HT29 colon): 40.8 µM
- TGI (A498 renal): > 100 µM
- TGI (HOP-62 NSCLC): > 100 µM
- TGI (M14 melanoma): 34.7 µM
- TGI (UACC-257 melanoma): 37.1 µM
- TGI (MDA-MB-231 breast): 35.9 µM
- TGI (MOLT-4 leukemia): 62.4 µM
- TGI (A549 NSCLC): > 100 µM
- TGI (NCI-H522 lung): 43.2 µM
- TGI (HS 578T breast): > 100 µM
- TGI (OVCAR-4 ovarian): > 100 µM
- TGI (PC-3 prostate): 94.6 µM
- TGI (MDA-MB-435): > 100 µM
- TGI (RPMI-8226 leukemia): > 100 µM
- TGI (OVCAR-3 ovarian): 34.6 µM
- TGI (HCT-15 colon): 36 µM
- TGI (UACC-62 melanoma): 35.4 µM
- TGI (T-47D breast): 33.9 µM
- TGI (HL-60(TB) leukemia): 57.9 µM
- TGI (LOX IMVI melanoma): 65.1 µM
- TGI (SK-MEL-2 melanoma): 58.5 µM
- TGI (SK-OV-3 ovarian): > 100 µM
- TGI (K-562 leukemia): > 100 µM
- TGI (EKVX NSCLC): 80.9 µM
- TGI (COLO 205 colon): 31.7 µM
- TGI (SF-295 CNS): > 100 µM
- TGI (CCRF-CEM leukemia): 89.6 µM
- TGI (SN12C renal): 42 µM
- TGI (UO-31 renal): 65.6 µM
- TGI (786-0 renal): 56 µM
- TGI (SF-268 CNS): 45.4 µM
- TGI (SNB-75 CNS): 66.1 µM
- TGI (DU-145 prostate): 52.6 µM
- TGI (NCI-H23 lung): > 100 µM
- TGI (SK-MEL-28 melanoma): 36.5 µM
- TGI (OVCAR-5 ovarian): 41.3 µM
- TGI (NCI/ADR-RES ovarian): > 100 µM
- TGI (TK-10 renal): 46.1 µM
- TGI (RXF 393 renal): 33.7 µM
- TGI (KM12 colon): 87.1 µM
- TGI (SW-620 colon): 63.1 µM
- TGI (MCF7 breast): 38.2 µM
- TGI (U251 CNS): 58.4 µM
- TGI (HOP-92 NSCLC): 33.8 µM
- TGI (NCI-H460 lung): 44.6 µM
- TGI (CAKI-1 renal): 36.5 µM
- TGI (SF-539 CNS): 53.9 µM
- TGI (MALME-3M melanoma): 38 µM
- TGI (HCT-116 colon): > 100 µM
- TGI (SNB-19 CNS): 92 µM

SMILES: CC(C)(C)OC(=O)NCCC1SC2C=CC1C2 (stereo unspecified)
- TGI (IGROV1 ovarian): > 100 µM
- TGI (NCI-H226 lung): > 100 µM
- TGI (MDA-N): > 100 µM
- TGI (BT-549 breast): > 100 µM
- TGI (OVCAR-8 ovarian): > 100 µM
- TGI (SK-MEL-5 melanoma): > 100 µM
- TGI (HCC-2998 colon): > 100 µM
- TGI (ACHN renal): > 100 µM
- TGI (HT29 colon): > 100 µM
- TGI (A498 renal): > 100 µM
- TGI (HOP-62 NSCLC): > 100 µM
- TGI (M14 melanoma): > 100 µM
- TGI (UACC-257 melanoma): > 100 µM
- TGI (MDA-MB-231 breast): > 100 µM
- TGI (MOLT-4 leukemia): > 100 µM
- TGI (A549 NSCLC): > 100 µM
- TGI (NCI-H522 lung): > 100 µM
- TGI (HS 578T breast): > 100 µM
- TGI (OVCAR-4 ovarian): > 100 µM
- TGI (PC-3 prostate): > 100 µM
- TGI (MDA-MB-435): > 100 µM
- TGI (RPMI-8226 leukemia): > 100 µM
- TGI (OVCAR-3 ovarian): > 100 µM
- TGI (HCT-15 colon): > 100 µM
- TGI (UACC-62 melanoma): > 100 µM
- TGI (T-47D breast): > 100 µM
- TGI (HL-60(TB) leukemia): > 100 µM
- TGI (LOX IMVI melanoma): > 100 µM
- TGI (SK-MEL-2 melanoma): > 100 µM
- TGI (SK-OV-3 ovarian): > 100 µM
- TGI (K-562 leukemia): > 100 µM
- TGI (EKVX NSCLC): > 100 µM
- TGI (COLO 205 colon): > 100 µM
- TGI (SF-295 CNS): > 100 µM
- TGI (CCRF-CEM leukemia): > 100 µM
- TGI (SN12C renal): > 100 µM
- TGI (UO-31 renal): > 100 µM
- TGI (786-0 renal): > 100 µM
- TGI (SF-268 CNS): > 100 µM
- TGI (SNB-75 CNS): > 100 µM
- TGI (DU-145 prostate): > 100 µM
- TGI (NCI-H23 lung): > 100 µM
- TGI (SK-MEL-28 melanoma): > 100 µM
- TGI (OVCAR-5 ovarian): > 100 µM
- TGI (NCI/ADR-RES ovarian): > 100 µM
- TGI (TK-10 renal): > 100 µM
- TGI (RXF 393 renal): > 100 µM
- TGI (KM12 colon): > 100 µM
- TGI (SW-620 colon): > 100 µM
- TGI (MCF7 breast): > 100 µM
- TGI (U251 CNS): > 100 µM
- TGI (HOP-92 NSCLC): > 100 µM
- TGI (NCI-H460 lung): > 100 µM
- TGI (CAKI-1 renal): > 100 µM
- TGI (SF-539 CNS): > 100 µM
- TGI (MALME-3M melanoma): > 100 µM
- TGI (HCT-116 colon): > 100 µM
- TGI (SNB-19 CNS): > 100 µM

— PubChem BioAssay (NCI)
